Literature values, collected in patent US11913924B2, “Ion generation using modified wetted porous materials” (Purdue Research Foundation, priority 2011, dated 2024).
Read-outs that look alike come from different tables or passages of the source. Values belong to the compound of their own block, whether it stands above or below them.

Assays:
[1] = in vivo
[2] = therapeutic windows listed in Table 6

Structure (SMILES): O=P1(N(CCCl)CCCl)NCCCO1 (stereo not shown) [Cyclophosphamide, cyclophosphamide]
Therapeutic range (plasma concentrations, Regenthal et al., J. Clin. Monitor Comp. 1999): 10000 to 25000 ng/mL

Structure (SMILES): CN(C)CCC=C1c2ccccc2CCc2ccccc21 [amitriptyline]
Therapeutic range [2]: 50 to 200 ng/mL

Structure (SMILES): CN(C)CCCC1(c2ccc(F)cc2)OCc2cc(C#N)ccc21 (stereo not shown) [citalopram]
Therapeutic range [2]: 10 to 200 ng/mL

half-life [1]: about 16 hours
Structure (SMILES): CN1C(=O)CC[C@H]1c1cccnc1 [cotinine]

Structure (SMILES): CCN(CC)CC(=O)Nc1c(C)cccc1C [lidocaine]
Therapeutic range [2]: 1,000-6,000 ng mL^−1

Structure (SMILES): CN1CCCC1c1cccnc1 (stereo not shown) [nicotine]
half-life [1]: about 2 hours

Structure (SMILES): CCN(CC)CCNC(=O)c1c(C)[nH]c(/C=C2\C(=O)Nc3ccc(F)cc32)c1C [sunitinib]
Therapeutic range [2]: 20 to 200 ng/mL
